Measured values as given in patent US9598423B2 (BRISTOL-MYERS SQUIBB COMPANY, priority 2013, dated 2017).

These compounds were tested against CK1δ (Homo sapiens (Human), UniProt P48730) (assay: CK1δ kinase assay (Caliper LABCHIP electrophoretic separation of fluoresceinated peptide substrate and product)). Settings: 200 pM CK1δ, 50 μM ATP, 1.5 μM peptide substrate, 22 hours at room temperature; read-out: CK1δ (IC50).
Sequence of CK1δ (P48730 whole entry): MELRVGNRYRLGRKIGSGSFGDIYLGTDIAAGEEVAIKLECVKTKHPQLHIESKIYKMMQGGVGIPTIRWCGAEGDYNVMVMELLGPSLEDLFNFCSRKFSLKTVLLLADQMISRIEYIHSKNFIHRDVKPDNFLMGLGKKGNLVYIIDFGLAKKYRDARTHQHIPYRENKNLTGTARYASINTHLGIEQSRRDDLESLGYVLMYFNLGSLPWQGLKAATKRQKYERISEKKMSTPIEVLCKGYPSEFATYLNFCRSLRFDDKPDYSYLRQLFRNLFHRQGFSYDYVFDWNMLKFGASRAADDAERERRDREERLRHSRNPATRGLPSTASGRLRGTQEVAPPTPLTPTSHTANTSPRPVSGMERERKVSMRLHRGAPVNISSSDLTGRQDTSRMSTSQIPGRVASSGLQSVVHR
Type: biochemical
Procedure: (§1) CK1ε and CK1δ Kinase Assays
(§2) The kinase assay was performed in V-bottom 384-well plates. […] The reaction was incubated at room temperature for 22 hours and terminated by adding 45 μl of 35 mM EDTA to each sample. The reaction mixture was analyzed on the Caliper LABCHIP®3000 (Caliper, Hopkinton, Mass.) by electrophoretic separation of the unphosphorylated substrate and phosphorylated product. […] Compounds were dissolved at 10 mM in dimethylsulfoxide (DMSO) and evaluated at eleven concentrations. IC50 values were derived by non-linear regression analysis.
For CSc1cccc(-c2nn3c(c2C(N)=O)CN(C(=O)NC(C)(C)C)CC3)c1 [Compound 150, N^5-(tert-Butyl)-2-(3-(methylthio)phenyl)-6,7-dihydropyrazolo[1,5-a]pyrazine-3,5(4H)-dicarboxamide], the IC50 was 0.01 to 10 nM. CC(C)(C)NC(=O)N1CCn2nc(-c3cc(F)cc(F)c3)c(C(N)=O)c2C1 [Compound 105, N^5-(tert-Butyl)-2-(3,5-difluorophenyl)-6,7-dihydropyrazolo[1,5-a]pyrazine-3,5(4H)-dicarboxamide] showed an IC50 of 0.01 to 10 nM. With NC(=O)c1c(-c2cccc(F)c2)nn2c1CN(C(=O)Nc1ccc(F)c(F)c1)CC2 [Compound 29, N^5-(3,4-Difluorophenyl)-2-(3-fluorophenyl)-6,7-dihydropyrazolo[1,5-a]pyrazine-3,5(4H)-dicarboxamide] the IC50 was 0.01 to 10 nM. Work on N#Cc1ccc(NC(=O)N2Cc3c(C(N)=O)c(-c4ccc(F)c(Cl)c4)nn3[C@@H](C(F)F)C2)cc1F [Compound A23, (R)-2-(3-Chloro-4-fluorophenyl)-N^5-(4-cyano-3-fluorophenyl)-7-(difluoromethyl)-6,7-dihydropyrazolo[1,5-a]pyrazine-3,5(4H)-dicarboxamide] yielded an IC50 of 0.01 to 10 nM. In the case of N#Cc1ccc(NC(=O)N2Cc3c(C(N)=O)c(-c4ccc(F)c(Cl)c4)nn3C(C(F)F)C2)cc1Cl (centres unmarked) [Compound A19, N^5-(3-Chloro-4-cyanophenyl)-2-(3-chloro-4-fluorophenyl)-7-(difluoromethyl)-6,7-dihydropyrazolo[1,5-a]pyrazine-3,5(4H)-dicarboxamide], the IC50 is reported as 0.01 to 10 nM. In the case of NC(=O)c1c(-c2cccc(F)c2)nn2c1CN(C(=O)Nc1ccc(F)nc1)CC2 [Compound 87, 2-(3-Fluorophenyl)-N^5-(6-fluoropyridin-3-yl)-6,7-dihydropyrazolo[1,5-a]pyrazine-3,5(4H)-dicarboxamide], the IC50 is reported as 0.01 to 10 nM.

What follows are compounds tested against CK1ε (Homo sapiens (Human), UniProt P49674) (assay: CK1ε kinase assay (Caliper LABCHIP electrophoretic separation of fluoresceinated peptide substrate and product)). Settings: 200 pM CK1ε, 50 μM ATP, 1.5 μM peptide substrate, 22 hours at room temperature; read-out: CK1ε (IC50).
Sequence of CK1ε (P49674 whole entry): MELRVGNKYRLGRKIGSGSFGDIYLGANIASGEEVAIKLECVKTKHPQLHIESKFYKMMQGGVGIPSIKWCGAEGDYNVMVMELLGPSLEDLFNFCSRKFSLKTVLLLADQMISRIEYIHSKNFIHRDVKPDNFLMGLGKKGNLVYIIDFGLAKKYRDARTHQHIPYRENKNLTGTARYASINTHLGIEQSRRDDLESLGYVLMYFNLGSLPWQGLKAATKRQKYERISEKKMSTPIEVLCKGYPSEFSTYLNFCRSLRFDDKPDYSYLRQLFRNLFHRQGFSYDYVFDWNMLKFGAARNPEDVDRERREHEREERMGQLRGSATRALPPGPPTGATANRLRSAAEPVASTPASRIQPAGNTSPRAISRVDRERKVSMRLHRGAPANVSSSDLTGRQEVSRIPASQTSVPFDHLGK
Type: biochemical
Procedure: as §1, §2
N#CC1(c2ccc(NC(=O)N3CCn4nc(-c5ccc(F)c(Cl)c5)c(C(N)=O)c4C3)cc2)CC1 [Compound A54, 2-(3-Chloro-4-fluorophenyl)-N^5-(4-(1-cyanocyclopropyl)phenyl)-6,7-dihydropyrazolo[1,5-a]pyrazine-3,5(4H)-dicarboxamide] showed an IC50 of 0.01 to 10 nM. CN(C)c1cc(Cl)cc(-c2nn3c(c2C(N)=O)CN(C(=O)Nc2ccc(C#N)c(F)c2)CC3)c1 [Compound 269, 2-(3-Chloro-5-(dimethylamino)phenyl)-N^5-(4-cyano-3-fluorophenyl)-6,7-dihydropyrazolo[1,5-a] pyrazine-3,5(4H)-dicarboxamide] gave an IC50 of 0.01 to 10 nM. In the case of N#Cc1ccc(NC(=O)N2Cc3c(C(N)=O)c(-c4ccc(F)c(Cl)c4)nn3[C@@H](C(F)F)C2)cc1 [Compound A21, (R)-2-(3-Chloro-4-fluorophenyl)-N^5-(4-cyanophenyl)-7-(difluoromethyl)-6,7-dihydropyrazolo[1,5-a]pyrazine-3,5(4H)-dicarboxamide], the IC50 is reported as 0.01 to 10 nM. Compound N#Cc1ccc(NC(=O)N2Cc3c(C(N)=O)c(-c4ccc(F)c(Cl)c4)nn3[C@H](C(F)F)C2)cc1 [Compound A20, (S)-2-(3-Chloro-4-fluorophenyl)-N^5-(4-cyanophenyl)-7-(difluoromethyl)-6,7-dihydropyrazolo[1,5-a]pyrazine-3,5(4H)-dicarboxamide] has an IC50 of 0.01 to 10 nM. Work on Cc1cc(C)cc(-c2nn3c(c2C(N)=O)CN(C(=O)NC(C)(C)C)CC3)c1 [Compound 128, N^5-(tert-Butyl)-2-(3,5-dimethylphenyl)-6,7-dihydropyrazolo[1,5-a]pyrazine-3,5(4H)-dicarboxamide] yielded an IC50 of 0.01 to 10 nM. CC1CN(C(N)=O)Cc2c(C(=O)NC(C)(C)C)c(-c3ccc(Cl)c(Cl)c3)nn21 (centres unmarked) [Compound A33, N-(tert-Butyl)-2-(3,4-dichlorophenyl)-7-methyl-6,7-dihydropyrazolo[1,5-a]pyrazine-3,5(4H)-dicarboxamide] gave an IC50 of 0.01 to 10 nM. For N#Cc1ccc(NC(=O)N2Cc3c(C(N)=O)c(-c4ccc(F)c(Cl)c4)nn3C(CF)C2)cc1Cl (single isomer, unassigned) [Compound A15, N^5-(3-Chloro-4-cyanophenyl)-2-(3-chloro-4-fluorophenyl)-7-(fluoromethyl)-6,7-dihydropyrazolo[1,5-a]pyrazine-3,5(4H)-dicarboxamide], the IC50 was 0.01 to 10 nM. N#Cc1ccc(NC(=O)N2CCn3nc(-c4cc(Cl)c5cncn5c4)c(C(N)=O)c3C2)cc1 [Compound 308, 2-(8-Chloroimidazo[1,5-a]pyridin-6-yl)-N-(4-cyanophenyl)-6,7-dihydropyrazolo[1,5-a]pyrazine-3,5(4H)-dicarboxamide] gave an IC50 of 0.01 to 10 nM. Work on NC(=O)c1c(-c2ccc(F)c(Cl)c2)nn2c1CN(C(=O)Nc1ccc3ccncc3c1)CC2 [Compound 196, 2-(3-Chloro-4-fluorophenyl)-N^5-(isoquinolin-7-yl)-6,7-dihydropyrazolo[1,5-a] pyrazine-3,5(4H)-dicarboxamide] yielded an IC50 of 0.01 to 10 nM. In the case of CN(C)c1cc(Cl)cc(-c2nn3c(c2C(N)=O)CN(C(=O)Nc2ccc(C#N)cc2)CC3)c1 [Compound 265, 2-(3-Chloro-5-(dimethylamino)phenyl)-N^5-(4-cyanophenyl)-6,7-dihydropyrazolo[1,5-a]pyrazine-3,5(4H)-dicarboxamide], the IC50 is reported as 0.01 to 10 nM. For N#Cc1ccc(NC(=O)N2CCn3nc(-c4cc(Cl)c5[nH]ncc5c4)c(C(N)=O)c3C2)cc1 [Compound 315, 2-(7-Chloro-1H-indazol-5-yl)-N^5-(4-cyanophenyl)-6,7-dihydropyrazolo[1,5-a]pyrazine-3,5(4H)-dicarboxamide], the IC50 was 0.01 to 10 nM. Compound NC(=O)c1c(-c2cccc(F)c2)nn2c1CN(C(=O)NC13C[C@@H]4CC1C[C@@H](C4)C3)CC2 [Compound 23, 2-(3-Fluorophenyl)-N^5-((2R,5S)-octahydro-2,5-methanopentalen-6a-yl)-6,7-dihydropyrazolo[1,5-a]pyrazine-3,5(4H)-dicarboxamide] has an IC50 of 0.01 to 10 nM. Work on CN(C)c1cc(Cl)cc(-c2nn3c(c2C(N)=O)CN(C(=O)Nc2ccc(C#N)c(Cl)c2)CC3)c1 [Compound 268, N^5-(3-Chloro-4-cyanophenyl)-2-(3-chloro-5-(dimethyl-amino)phenyl)-6,7-dihydropyrazolo[1,5-a] pyrazine-3,5(4H)-dicarboxamide] yielded an IC50 of 0.01 to 10 nM. For N#Cc1ccc(NC(=O)N2CCn3nc(-c4cnc(F)c(Cl)c4)c(C(N)=O)c3C2)cc1F [Compound 295, 2-(5-Chloro-6-fluoropyridin-3-yl)-N^5-(4-cyano-3-fluorophenyl)-6,7-dihydropyrazolo[1,5-a] pyrazine-3,5(4H)-dicarboxamide], the IC50 was 0.01 to 10 nM. For N#Cc1ccc(NC(=O)N2Cc3c(C(N)=O)c(-c4ccc(F)c(Cl)c4)nn3[C@@H](CF)C2)cc1F [Compound A17, (R)-2-(3-Chloro-4-fluorophenyl)-N^5-(4-cyano-3-fluorophenyl)-7-(fluoromethyl)-6,7-dihydropyrazolo[1,5-a]pyrazine-3,5(4H)-dicarboxamide], the IC50 was 0.01 to 10 nM. Work on N#Cc1ccc(NC(=O)N2Cc3c(C(N)=O)c(-c4ccc(F)c(Cl)c4)nn3[C@H](CF)C2)cc1F [Compound A16, (S)-2-(3-Chloro-4-fluorophenyl)-N^5-(4-cyano-3-fluorophenyl)-7-(fluoromethyl)-6,7-dihydropyrazolo[1,5-a]pyrazine-3,5(4H)-dicarboxamide] yielded an IC50 of 0.01 to 10 nM. With Cc1cc(NC(=O)N2CCn3nc(-c4cc(Cl)cc(N(C)C)c4)c(C(N)=O)c3C2)ccc1C#N [Compound 267, 2-(3-Chloro-5-(dimethylamino)phenyl)-N^5-(4-cyano-3-methylphenyl)-6,7-dihydropyrazolo[1,5-a] pyrazine-3,5(4H)-dicarboxamide] the IC50 was 0.01 to 10 nM. N#Cc1ccc(NC(=O)N2CCn3nc(-c4cc(Cl)c5ocnc5c4)c(C(N)=O)c3C2)cc1 [Compound 309, 2-(7-Chlorobenzo[d]oxazol-5-yl)-N^5-(4-cyanophenyl)-6,7-dihydropyrazolo[1,5-a]pyrazine-3,5(4H)-dicarboxamide] showed an IC50 of 0.01 to 10 nM. Cc1cc(-c2nn3c(c2C(N)=O)CN(C(=O)Nc2ccc(C#N)c(C)c2)CC3)ccc1F [Compound 239, N^5-(4-Cyano-3-methylphenyl)-2-(4-fluoro-3-methylphenyl)-6,7-dihydropyrazolo[1,5-a]pyrazine-3,5(4H)-dicarboxamide] showed an IC50 of 0.01 to 10 nM. N#Cc1ccc(NC(=O)N2CCn3nc(-c4ccc(C5CC5)c(Cl)c4)c(C(N)=O)c3C2)cc1 [Compound 258, 2-(3-Chloro-4-cyclopropylphenyl)-N^5-(4-cyanophenyl)-6,7-dihydropyrazolo[1,5-a]pyrazine-3,5(4H)-dicarboxamide] was tested, and the IC50 was 0.01 to 10 nM.

Same assay, conditions: CK1ε (IC50, nM)
CCC1CN(C(=O)Nc2ccc(C#N)cc2)Cc2c(C(N)=O)c(-c3ccc(F)c(Cl)c3)nn21 (single isomer, unassigned) [Compound A68, 2-(3-Chloro-4-fluorophenyl)-N^5-(4-cyanophenyl)-7-ethyl-6,7-dihydropyrazolo[1,5-a]pyrazine-3,5(4H)-dicarboxamide] gave an IC50 of 0.01 to 10 nM.

Same assay, conditions: read-out: CK1ε (IC50)
Compound N#Cc1ccc(NC(=O)N2CCn3nc(-c4cnc(F)c(Cl)c4)c(C(N)=O)c3C2)cc1Cl [Compound 296, N^5-(3-Chloro-4-cyanophenyl)-2-(5-chloro-6-fluoropyridin-3-yl)-6,7-dihydropyrazolo[1,5-a] pyrazine-3,5(4H)-dicarboxamide] has an IC50 of 0.01 to 10 nM. CCC1CN(C(=O)Nc2ccc(C#N)cc2)Cc2c(C(N)=O)c(-c3ccc(F)c(Cl)c3)nn21 (single isomer, unassigned) [Compound A69, 2-(3-Chloro-4-fluorophenyl)-N^5-(4-cyanophenyl)-7-ethyl-6,7-dihydropyrazolo[1,5-a]pyrazine-3,5(4H)-dicarboxamide] showed an IC50 of 0.01 to 10 nM.
